Measurements from patent US20250236642A1, “PHARMACEUTICAL COMPOSITION FOR TREATMENT OR PREVENTION OF ADULT T-CELL LEUKEMIA” (NEC Corporation, priority 2022, published 2025).
Read-outs that look alike come from different tables or passages of the source. No end group written: not given here.

Legend:
HLA-A*24:02 molecule = HLA-A*24:02 molecule (Homo sapiens, UniProt P04439, D101N/D140Y/D185E/E176V/E190D/F33S/G103R/G107R/I119L/I121M/I306V/K335N/L105A/L180Q/L300P/N151K/N90K/Q86E/Q94H/R106L/R138H/R89G/T104I/T345S/V100E/W191G/Y123F); test: Binding of peptide to HLA-A*24:02 molecule using C1R-A24 cells
Procedure: Measurement of binding ability of a peptide to an HLA-A*24:02 molecule, which is a product of an HLA-A*24:02 gene, was performed using C1R-A24 cells expressing an HLA-A*24:02 molecule (Cells created by Professor Masafumi Takiguchi, Kumamoto University, was provided by Assistant Professor Masaki Yasukawa, Ehime University, with permission).
First, the C1R-A24 cells were exposed to acidic conditions at pH 3.3 for 30 seconds to dissociate and remove an endogenous peptide originally binding to an HLA-A*24:02 molecule and light chain β2m commonly associated with an HLA class I molecule. After neutralization, purified β2m was added to the C1R-A24 cells, and the mixture was added to a peptide dilution series and incubated on ice for four hours.
Thereafter, the number of MHC-peps for each C1R-A24 cell (proportional to a fluorescence intensity of the fluorescent antibody) was quantitatively measured using a fluorescence cell analyzer FACScan (Becton-Dickinson).

HLA-A*02:01 molecule = target: T1, HLA-A*02:01 molecule (Homo sapiens, UniProt P04439, D140Y/D185E/D98H/E176V/E277Q/G131W/G231S/I119V/I121R/I166T/I218V/L300P/L318F/N151K/N90K/P208A/P217A/Q86G/Q94H/R138H/R169H/T345S); test: Binding of peptide to HLA-A*02:01 molecule using cell line T2
T1 construct: using a cell line T2 (purchased from ATCC) expressing an HLA-A*02:01 molecule; host or cells: T2 cell line
Procedure: Measurement of binding ability of a peptide to an HLA-A*02:01 molecule, which is a product of an HLA-A*02:01 gene, was performed using a cell line T2 (purchased from ATCC) expressing an HLA-A*02:01 molecule.
T2 cells and purified β2m were added to a serial dilution series of a peptide whose binding ability was to be measured, and then the mixture was incubated at 37° C. for four hours. HLA-A*02:01 molecules whose expression level increased in a peptide concentration-dependent manner by this time point were stained using an association-type specific fluorescently labeled monoclonal antibody BB7.2.
Thereafter, the amount of fluorescence per cell was measured with a flow cytometer, and a dissociation constant Kd value was calculated by the method disclosed in the article (Udaka et al., Immunogenetics, 51, 816-828, 2000) by the present inventor.

HLA-A*02:06 molecule = target: T2, HLA-A*02:06 molecule (Homo sapiens, UniProt P04439, D140Y/D185E/D98H/E176V/E277Q/F33Y/G131W/G231S/I119V/I121R/I166T/I218V/L300P/L318F/N151K/N90K/P208A/P217A/Q86G/Q94H/R138H/R169H/T345S); test: Binding of peptide to HLA-A*02:06 molecule using RA2.6 cells
T2 construct: expressed in transfected cells; host or cells: RA2.6 cells (mouse TAP-deficient RMAS with HLA-A*02:06 cDNA)
Procedure: Measurement of binding ability of a peptide to an HLA-A*02:06 molecule, which is a product of an HLA-A*02:06 gene, was performed using RA2.6 cells (a cell line newly created at Kochi University) obtained by introducing cDNA of the HLA-A*02:06 gene into RMAS, which is a mouse transporter associated with antigen processing (TAP)-deficient cell line.
A fluorescently labeled monoclonal antibody BB7.2 that specifically recognizes a peptide binding type HLA-A*02:06 molecule was added thereto, and the mixture was incubated on ice for 20 minutes to stain the cells.

[1] = Table 2, dissociation constant Kd value (−log Kd value), >−3.0 = no significant binding ability, read-out: Measured value of allele A*24:02 (converted)
[2] = Table 2, dissociation constant Kd value (−log Kd value), >−3.0 = no significant binding ability, read-out: Measured value of allele A*02:01 (converted)
[3] = Table 2, dissociation constant Kd value (−log Kd value), >−3.0 = no significant binding ability, read-out: Measured value of allele A*02:06 (converted)
[4] = Table 4, Kd value (−log Kd value), smaller than −3 = binding property, read-out: Measured value of allele A*24:02 (converted)
[5] = Measured value of allele A*24:02, Table 2, dissociation constant Kd value (−log Kd value), >−3.0 = no significant binding ability

Sequence	Kd (HLA-A*24:02 molecule; [1]) [µM]	Kd (HLA-A*02:01 molecule; [2]) [µM]	Kd (HLA-A*02:06 molecule; [3]) [µM]	Kd (HLA-A*24:02 molecule; [4]) [µM]	Kd (HLA-A*02:01 molecule) [µM]	Kd (HLA-A*24:02 molecule; [5]) [µM]	Kd (HLA-A*02:06 molecule) [µM]
FIDSDSSSW [compound 57]	19.9	> 1000	> 1000	–	–	–	–
LHITRKSFI [compound 63]	17.5	> 1000	> 1000	–	–	–	–
SSFEFFEEA [compound 37]	> 1000	0.32	0.0377	> 1000	–	–	–
YPGWHSTTI [compound 52]	2.18	–	> 1000	–	> 1000	–	–
ALPAPHLTL [compound 18]	–	–	–	–	1.02	0.185	3.03
IQYSSFHNL [compound 21]	–	–	–	–	5.17	0.294	2.51
SLPFSPSQF [compound 56]	0.1	> 1000	> 1000	–	–	–	–
THLDAGTVE [compound 75]	> 1000	> 1000	> 1000	> 1000	–	–	–
HMAKVIEFL [compound 38]	0.923	2.06	> 1000	–	–	–	–

More lines, main results first:

Kd (HLA-A*24:02 molecule; [1]) [µM]	Kd (HLA-A*02:01 molecule; [2]) [µM]	Kd (HLA-A*02:06 molecule; [3]) [µM]	Kd (HLA-A*24:02 molecule; [4]) [µM]	Sequence	Kd (HLA-A*02:01 molecule) [µM]	Kd (HLA-A*24:02 molecule; [5]) [µM]	Kd (HLA-A*02:06 molecule) [µM]
4.47	> 1000	> 1000	–	SSLDPPKVL [compound 55]	–	–	–
2.91	> 1000	42.4	–	CMIVHQGTI [compound 36]	–	–	–
> 1000	> 1000	> 1000	> 1000	LHEEHGATL [compound 79]	–	–	–
0.23	7.39	23.7	–	LLITRKSFI [compound 16]	–	–	–
3.47	97.6	243	–	LVITRKSFI [compound 30]	–	–	–
> 1000	> 1000	426	> 1000	ETLQFIDSM [compound 53]	–	–	–
0.66	2.19	16.6	–	ALPKIRARV [compound 12]	–	–	–
2.5	78.1	230	–	LIITRKSFI [compound 29]	–	–	–
0.168	> 1000	> 39.8	–	YFFTVIFSF [compound 44]	–	–	–
